Measured values as given in ChEMBL document CHEMBL2176967, “Radiofluorinated derivatives of 2-(phosphonomethyl)pentanedioic acid as inhibitors of prostate specific membrane antigen (PSMA) for the imaging of prostate cancer” (J Med Chem, 2012).

Tests used:
[1] = molecular target: T1, Glutamate carboxypeptidase 2 (Homo sapiens, UniProt Q04609); test: biochemical
Description: Inhibition of NAALADase activity in human LNCaP cell membranes assessed as inhibition of [3H]NAG conversion to [3H]glutamate after 30 mins by liquid scintillation counting

[2] = molecular target: T1, Glutamate carboxypeptidase 2; test: Binding affinity to NAALADase
[3] = Drug level in human LNCaP cells xenografted Balb/c mouse gut at 10 MBq, iv measured after 45 to 130 mins by PET/CT scanning; format: ADME, organism-based; details: in vivo
Liver = test: Drug level in human LNCaP cells xenografted Balb/c mouse liver at 10 MBq, iv measured after 45 to 130 mins by PET/CT scanning; format: ADME, organism-based; details: in vivo
[4] = Drug level in human LNCaP cells xenografted Balb/c mouse tumor at 10 MBq, iv measured after 45 to 130 mins by PET/CT scanning; format: ADME, organism-based, Neoplasm; details: in vivo
Kidney [5] = test: Drug level in human LNCaP cells xenografted Balb/c mouse kidney at 10 MBq, iv measured after 45 to 130 mins by PET/CT scanning in presence of unlabelled compound; format: ADME, organism-based; details: in vivo
Bone = test: Drug level in human LNCaP cells xenografted Balb/c mouse bone at 10 MBq, iv measured after 45 to 130 mins by PET/CT scanning; format: ADME, organism-based, Bone element; details: in vivo
[6] = Drug level in human LNCaP cells xenografted Balb/c mouse tumor at 10 MBq, iv measured after 45 to 130 mins by PET/CT scanning in presence of unlabelled compound; format: ADME, organism-based, Neoplasm; details: in vivo
Urinary bladder = test: Drug level in human LNCaP cells xenografted Balb/c mouse bladder at 10 MBq, iv measured after 45 to 130 mins by PET/CT scanning; format: ADME, organism-based; details: in vivo
Kidney [7] = test: Drug level in human LNCaP cells xenografted Balb/c mouse kidney at 10 MBq, iv measured after 45 to 130 mins by PET/CT scanning; format: ADME, organism-based; details: in vivo

T1 sequence (Q04609 whole entry): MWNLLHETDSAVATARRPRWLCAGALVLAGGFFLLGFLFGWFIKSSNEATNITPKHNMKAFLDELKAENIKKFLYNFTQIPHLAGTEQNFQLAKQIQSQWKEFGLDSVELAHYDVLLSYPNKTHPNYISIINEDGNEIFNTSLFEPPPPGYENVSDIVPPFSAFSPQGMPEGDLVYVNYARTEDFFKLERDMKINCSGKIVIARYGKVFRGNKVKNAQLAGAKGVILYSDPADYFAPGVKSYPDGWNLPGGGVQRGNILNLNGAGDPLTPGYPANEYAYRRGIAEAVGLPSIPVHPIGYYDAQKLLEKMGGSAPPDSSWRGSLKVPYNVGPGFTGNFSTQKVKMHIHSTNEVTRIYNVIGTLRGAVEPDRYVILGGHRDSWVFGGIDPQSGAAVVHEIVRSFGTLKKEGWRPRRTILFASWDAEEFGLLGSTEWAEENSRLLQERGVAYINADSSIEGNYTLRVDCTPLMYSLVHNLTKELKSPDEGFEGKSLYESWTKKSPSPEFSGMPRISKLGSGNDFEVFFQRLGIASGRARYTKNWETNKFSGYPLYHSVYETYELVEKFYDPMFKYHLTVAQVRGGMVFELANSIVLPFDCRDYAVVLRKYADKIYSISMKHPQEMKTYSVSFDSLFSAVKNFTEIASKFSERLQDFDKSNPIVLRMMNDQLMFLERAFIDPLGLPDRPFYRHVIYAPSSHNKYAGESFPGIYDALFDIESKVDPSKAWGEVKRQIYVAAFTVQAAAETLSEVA

Row | IC50 [1] | Ki [1] | Ki [2] | Structure (SMILES) | other results
1 | 8.1 nM | 3.1 nM |  | O=C(O)[C@H](C[C@@H](F)C(=O)O)CP(=O)(O)O | 
2 |  |  | 1280 nM | C[C@H](C[C@H](NC(=O)N[C@@H](C[C@@H](C)C(=O)O)C(=O)O)C(=O)O)C(=O)O | 
3 | 3.1 nM | 1.4 nM |  | O=C(O)[C@H](C[C@H](F)C(=O)O)CP(=O)(O)O | 
4 |  |  |  | O=C(O)CCCC(CP(=O)(O)O)C(=O)O (stereo not drawn) | IC50 [2]: 185 nM
5 | 55.9 nM | 22 nM |  | O=C(O)[C@@H](C[C@H](F)C(=O)O)CP(=O)(O)O | 
6 |  |  | 1110 nM | C[C@@H](C[C@H](NC(=O)N[C@@H](C[C@H](C)C(=O)O)C(=O)O)C(=O)O)C(=O)O | 
7 | 6.8 nM | 2.6 nM |  | O=C(O)C(F)CC(CP(=O)(O)O)C(=O)O (racemic) | 
8 | 89.4 nM | 36.4 nM |  | O=C(O)[C@@H](C[C@@H](F)C(=O)O)CP(=O)(O)O | 
9 |  |  |  | O=C(O)C([18F])CC(CP(=O)(O)O)C(=O)O (racemic) | Drug uptake [3]: Not Active; Drug uptake (Liver): Not Active; Drug uptake [4]: Active; Drug uptake (Kidney [5]): Not Active; Drug uptake (Bone): Active; Drug uptake [6]: Not Active; Drug uptake (Urinary bladder): Active; Drug uptake (Kidney [7]): Active
10 |  |  | 392 nM | O=C(N[C@@H](C[C@@H](Cc1ccccc1)C(=O)O)C(=O)O)N[C@@H](C[C@@H](Cc1ccccc1)C(=O)O)C(=O)O | 

Row | Structure (SMILES) | IC50 [1] | Ki [1] | Ki [2] | other results
11 | O=C(O)CC[C@H](NC(=O)N[C@@H](CCC(=O)O)C(=O)O)C(=O)O |  |  | 8 nM | 
